Source: article PMC11271312 (Nature Communications, 2024)

Experiments:
[1] = 80% pooled plasma from rats and 20% PBS (pH 7.4); conditions: rat, 37 °C, up to […]
[2] = 80% pooled plasma from humans and 20% PBS (pH 7.4); conditions: human, 37 °C, up to […]
[3] = 80% pooled plasma from minipigs and 20% PBS (pH 7.4); conditions: minipig, 37 °C, up to […]
[4] = 80% pooled plasma from dogs and 20% PBS (pH 7.4); conditions: dog, 37 °C, up to […]
[5] = plasma from minipigs dosed intravenously with insulin icodec (2 nmol/kg); conditions: Göttingen Minipigs, up to 10 days after dosing

Substance	fragment found [1]	fragment found [2]	fragment found [3]	fragment found [4]	fragment found [5]
A14E, B25H, desB30 | C18 diacid	B-chain (internal disulphide bond connecting Cys 7 with Cys 19), 48 h	–	–	–	–
B16H, desB30 | C18 diacid	B-chain (internal disulphide bond connecting Cys 7 with Cys 19), 24 h	B-chain (internal disulphide bond connecting Cys 7 with Cys 19), 24 h	B-chain (internal disulphide bond connecting Cys 7 with Cys 19), 5 h	B-chain (internal disulphide bond connecting Cys 7 with Cys 19), 24 h	–
A14E, B25H, desB30 | C20 diacid	B-chain (internal disulphide bond connecting Cys 7 with Cys 19), 24 h	B-chain (internal disulphide bond connecting Cys 7 with Cys 19), 96 h	B-chain (internal disulphide bond connecting Cys 7 with Cys 19), 168 h	–	–
A14E B16H B25H B29Nε-C20 diacid-LγGlu–2xAdo desB30 human insulin	insulin B-chain with internal disulphide Cys 7–Cys 19, 24 h	insulin B-chain with internal disulphide Cys 7–Cys 19, 24 h	insulin B-chain with internal disulphide Cys 7–Cys 19, 48 h	insulin B-chain with internal disulphide Cys 7–Cys 19, 96 h	free insulin icodec B-chain (disulphide Cys 7–Cys 19)
B25H, desB30 | C18 diacid	B-chain (internal disulphide bond connecting Cys 7 with Cys 19), 5 h	–	–	–	–
A14E, desB30 | C18 diacid	B-chain (internal disulphide bond connecting Cys 7 with Cys 19), 24 h	–	–	–	–
desB30 | C18 diacid	B-chain (internal disulphide bond connecting Cys 7 with Cys 19), 2.5 h	–	–	–	–
